Reference: patent publication US20240002127A1 (priority 2020, published 2024)

What was measured:
[1] = type: in vivo, rats; conditions: rat
Protocol: A single dose PK study of ALC-0315 and […] following intravenous (IV) bolus injection of a nanoparticle formulation in rats was conducted to assess the PK and metabolism of lipid excipients ALC-0315 and ALC-0159.

[2] = type: in vitro ADME, mice, rats, monkeys, humans; conditions: mouse, rat, monkey, human
Protocol: In vitro metabolism of ALC-0315 and ALC-0159 was evaluated in blood, liver microsomes, S9 fractions, and hepatocytes from mice, rats, monkeys, and humans. In vivo metabolism was examined in rat plasma, urine, faeces, and liver samples from the PK study. […] ALC-0315 and ALC-0159 are apparently metabolised by hydrolytic metabolism of the ester and amide functionalities, respectively, and this hydrolytic metabolism is observed across the species evaluated.

[3] = target: human ACE2 peptidase domain (amino acids 1-615 of human ACE2 with C-terminal His-10 and Avi tags) (human) (UniProt Q9BYF1)
UniProt Q9BYF1, sequence (Q9BYF1 18-615 limits assumed): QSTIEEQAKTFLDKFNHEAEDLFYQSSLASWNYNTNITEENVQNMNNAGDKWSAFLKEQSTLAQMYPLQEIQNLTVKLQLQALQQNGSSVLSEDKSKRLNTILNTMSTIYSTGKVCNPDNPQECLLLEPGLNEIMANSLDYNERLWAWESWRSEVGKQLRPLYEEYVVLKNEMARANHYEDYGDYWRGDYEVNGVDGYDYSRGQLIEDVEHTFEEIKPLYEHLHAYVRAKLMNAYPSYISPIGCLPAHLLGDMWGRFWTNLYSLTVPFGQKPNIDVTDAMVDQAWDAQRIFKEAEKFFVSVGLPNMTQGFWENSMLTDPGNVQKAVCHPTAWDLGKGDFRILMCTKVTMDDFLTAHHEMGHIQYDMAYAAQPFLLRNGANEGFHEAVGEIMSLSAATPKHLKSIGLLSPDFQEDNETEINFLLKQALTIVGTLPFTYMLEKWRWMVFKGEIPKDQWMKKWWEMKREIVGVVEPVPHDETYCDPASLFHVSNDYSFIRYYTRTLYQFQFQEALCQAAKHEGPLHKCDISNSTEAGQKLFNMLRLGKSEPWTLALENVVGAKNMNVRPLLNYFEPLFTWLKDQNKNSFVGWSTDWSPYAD

## CCCCCCCCC(CCCCCC)C(=O)OCCCCCCN(CCCCO)CCCCCCOC(=O)C(CCCCCC)CCCCCCCC (stereo not shown) [ALC-0315, ((4-hydroxybutyl)azanediyl)bis(hexane-6,1-diyl)bis(2-hexyldecanoate)]
[1]
  eliminated unchanged in faeces: little to no unchanged material
[1]; IV
  apparent terminal t½ in plasma and liver: 140 to 190 h
[1]; IV, over 2 weeks
  drop of concentration in liver: ~4 fold
  drop of concentration in plasma: approximately 7000 fold
[2]
  metabolism in vitro and in vivo: relatively slowly

## RBD-foldon trimer (trimerised SARS-CoV-2 spike receptor-binding domain fused to T4 fibritin foldon, (other; other documents disagree on this pair)
[3]
  Kd: 5 pM
  fold difference of KD against the reported KD of monomeric RBD: 1000 fold
